{
  "source": "patent US4663438A",
  "about": "“Novel nucleic acid-containing glycoprotein” (Kureha Kagaku Kogyo Kabushiki Kaisha, priority 1981, dated 1987)",
  "tested_on": "sarcoma-180 cells",
  "assay": "Inhibition by monosaccharide of agglutination of sarcoma-180 cells due to the present substance",
  "assay_type": "cell-based, mouse",
  "settings": "present substance 3 mg with monosaccharide 1.5 mg, 30 min, 37° C.; blank test 18",
  "experimental": "(ii) Test on the inhibition by monosaccharide of agglutination of sarcoma-180 cells due to the present substance\nThe same specimen of sarcoma-180 cells suspending in 0.5 ml of Hanks' solution at a rate of 1×10^6 cells/ml as in Test (i) and each 0.5 ml of the physiological saline solution containing 3 mg of the present substance and 1.5 mg of the respective monosaccharides set forth below, which was incubated for 30 min. at 37° C., then discarding the supernatant medium and washing the residue with Hanks' solution, the remaining residue was examined under a microscope to count the number of agglutinated lumps of the cells.",
  "data": [
    {"smiles": "O=C[C@H](O)[C@@H](O)[C@@H](O)[C@H](O)CO", "note": "[D-galactose]", "values": [
      {"measurement": "Number of agglutinated lumps", "value": 118}
    ]},
    {"smiles": "C[C@H](O)[C@@H](O)[C@@H](O)[C@H](O)C=O", "note": "[L-fucose]", "values": [
      {"measurement": "Number of agglutinated lumps", "value": 27}
    ]},
    {"smiles": "C[C@H](O)[C@H](O)[C@@H](O)[C@@H](O)C=O", "note": "[L-rhamnose]", "values": [
      {"measurement": "Number of agglutinated lumps", "value": 25}
    ]},
    {"smiles": "CC(=O)N[C@@H]1[C@@H](O)[C@H](O)[C@@H](CO)O[C@H]1O", "note": "[N--acetylglucosamine]", "values": [
      {"measurement": "Number of agglutinated lumps", "value": 85}
    ]},
    {"smiles": "CO[C@H]1O[C@H](CO)[C@@H](O)[C@H](O)[C@H]1O", "note": "[methyl α-glucoside]", "values": [
      {"measurement": "Number of agglutinated lumps", "value": 115}
    ]},
    {"smiles": "COC1OC(CO)C(O)C(O)C1O", "note": "(stereo not drawn) [methyl α-mannoside]", "values": [
      {"measurement": "Number of agglutinated lumps", "value": 35}
    ]}
  ]
}
